In ChEMBL document CHEMBL1201862, “PubChem BioAssay data set” (2004):
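Step 1: Grow cells in 96-well plates. Step 2: Expose to compound for 48 hours at 5 concentrations. Step 3: Interpolate endpoints linearly; if unreached, use highest concentration. GI50 = concentration required for 50% inhibition of growth.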 Activity calls are given as the source filed them. No stated cut-off is given here; in the data, active = GI50 up to about 1.1 µM and inactive = higher.

Assays:
Test in all cases: NCI anticancer screen, dose series, 48 h
A498 = tested on: A498
EKVX = tested on: EKVX
HCC 2998 = tested on: HCC 2998
HCT-116 = tested on: HCT-116
HCT-15 = tested on: HCT-15
MDA-MB-435 = tested on: MDA-MB-435
MOLT-4 = tested on: MOLT-4
NCI-H522 = tested on: NCI-H522
OVCAR-4 = tested on: OVCAR-4
OVCAR-8 = tested on: OVCAR-8
PC-3 = tested on: PC-3
RPMI-8226 = tested on: RPMI-8226
SF-268 = tested on: SF-268
SK-MEL-2 = tested on: SK-MEL-2
SK-MEL-5 = tested on: SK-MEL-5
T47D = tested on: T47D
U-251 = tested on: U-251
UACC-62 = tested on: UACC-62

CN(C)CCn1c(=O)c2ccc(NCCCN(C)CCCNc3ccc4c(=O)n(CCN(C)C)c(=O)n5c6ccc(O)cc6c(=O)c3c45)c3c(=O)c4cc(O)ccc4n(c1=O)c23
GI50 (A498): 0.0289 µM (active)
GI50 (EKVX): 0.0933 µM (active)
GI50 (HCC 2998): < 0.0151 µM (active)
GI50 (HCT-116): < 0.01 µM (active)
GI50 (HCT-15): < 0.0173 µM
GI50 (MDA-MB-435): < 0.01 µM (active)
GI50 (MOLT-4): < 0.01 µM (active)
GI50 (NCI-H522): < 0.01 µM (active)
GI50 (OVCAR-4): < 0.01 µM (active)
GI50 (OVCAR-8): < 0.01 µM (active)
GI50 (PC-3): < 0.01 µM (active)
GI50 (RPMI-8226): < 0.01 µM (active)
GI50 (SF-268): 0.0481 µM (active)
GI50 (SK-MEL-2): 0.0335 µM (active)
GI50 (SK-MEL-5): < 0.01 µM (active)
GI50 (T47D): 0.0624 µM (active)
GI50 (U-251): < 0.01 µM (active)
GI50 (UACC-62): < 0.0116 µM (active)

O=c1c2ccccc2sc2cccc(NCCCN3CCN(CCCNc4cccc5sc6ccccc6c(=O)c45)CC3)c12
GI50 (A498): > 100 µM (inactive)
GI50 (EKVX): > 100 µM (inactive)
GI50 (HCC 2998): > 100 µM (inactive)
GI50 (HCT-116): > 100 µM (inactive)
GI50 (HCT-15): > 100 µM
GI50 (MDA-MB-435): > 100 µM (inactive)
GI50 (MOLT-4): > 100 µM (inactive)
GI50 (NCI-H522): > 100 µM (inactive)
GI50 (OVCAR-4): > 100 µM (inactive)
GI50 (PC-3): 85.1 µM (inactive)
GI50 (RPMI-8226): > 100 µM (inactive)
GI50 (SF-268): > 100 µM (inactive)
GI50 (SK-MEL-2): > 100 µM (inactive)
GI50 (SK-MEL-5): > 100 µM (inactive)
GI50 (T47D): > 100 µM (inactive)
GI50 (U-251): > 100 µM (inactive)
GI50 (UACC-62): 64.7 µM (inactive)

CC(=O)N1N=C(c2ccc3ccccc3c2O)CC1c1ccc(N(C)C)cc1 (centres undefined)
GI50 (A498): > 100 µM (inactive)
GI50 (HCC 2998): > 100 µM (inactive)
GI50 (HCT-116): > 100 µM (inactive)
GI50 (HCT-15): > 100 µM
GI50 (MDA-MB-435): > 100 µM (inactive)
GI50 (MOLT-4): > 100 µM (inactive)
GI50 (NCI-H522): > 100 µM (inactive)
GI50 (OVCAR-4): > 100 µM (inactive)
GI50 (OVCAR-8): > 100 µM (inactive)
GI50 (PC-3): > 100 µM (inactive)
GI50 (RPMI-8226): > 100 µM (inactive)
GI50 (SF-268): > 100 µM (inactive)
GI50 (SK-MEL-2): > 100 µM (inactive)
GI50 (SK-MEL-5): > 100 µM (inactive)
GI50 (T47D): > 100 µM (inactive)
GI50 (U-251): > 100 µM (inactive)
GI50 (UACC-62): > 100 µM (inactive)

Oc1[nH]c(Nc2cccc(CC(F)(F)F)c2)nc2ncnc1-2
GI50 (A498): > 100 µM (inactive)
GI50 (EKVX): > 100 µM (inactive)
GI50 (HCC 2998): > 100 µM (inactive)
GI50 (HCT-116): > 100 µM (inactive)
GI50 (HCT-15): > 100 µM
GI50 (MDA-MB-435): > 100 µM (inactive)
GI50 (NCI-H522): > 100 µM (inactive)
GI50 (OVCAR-4): > 100 µM (inactive)
GI50 (OVCAR-8): > 100 µM (inactive)
GI50 (PC-3): > 100 µM (inactive)
GI50 (RPMI-8226): > 100 µM (inactive)
GI50 (SF-268): > 100 µM (inactive)
GI50 (SK-MEL-2): > 100 µM (inactive)
GI50 (SK-MEL-5): > 100 µM (inactive)
GI50 (T47D): > 100 µM (inactive)
GI50 (U-251): > 100 µM (inactive)
GI50 (UACC-62): > 100 µM (inactive)
